Data reported in US11371055B2, “Herbicide resistance genes” (CORTEVA AGRISCIENCE LLC, priority 2005, dated 2022).

Columns and labels:
[1] = tested on: AAD-12 (v1) T1 tobacco plants; assay: Cross tolerance of T1 tobacco to phenoxy and pyridyloxy auxin herbicides; type: in vivo, Nicotiana tabacum
Excerpt: Two to four T0 individuals surviving high rates of 2,4-D and fluroxypyr were saved from each event and allowed to self fertilize in the greenhouse to give rise to T1 seed. The T1 seed was stratified, and sown into selection trays much like that of Arabidopsis (Example 7.4), followed by selective removal of untransformed nulls in this segregating population with 560 g ai/ha glufosinate (PAT gene selection). Survivors were transferred to individual 3-inch pots in the greenhouse. These lines provided high levels of resistance to 2,4-D in the T0 generation. Improved consistency of response is anticipated in T1 plants not having come directly from tissue culture. These plants were compared against wildtype KY160 tobacco. All plants were sprayed with a track sprayer set at 187 L/ha. The plants were sprayed from a range of 140-2240 g ac/ha 2,4-D dimethylamine salt (DMA), 70-1120 g ace/ha triclopyr or 35-560 g ae/ha fluroxypyr. All applications were formulated in water. Each treatment was replicated 2-4 times. Plants were evaluated at 3 and 14 days after treatment. Plants were assigned injury rating with respect to stunting, chlorosis, and necrosis. The T1 generation is segregating, so some variable response is expected due to difference in zygosity.

[2] = tested on: Roundup Ready (RR) control corn hybrid (2P782); assay: Field tolerance of corn: visual injury and brace root injury, control hybrid; type: in vivo, Zea mays; conditions: for visual injury: 14 DAT; for % Visual Injury 14DAT: 2P782 control
Description: Seeds were planted with cone planter on 40-inch row spacing at Wayside and 30 inch spacing at Fowler. […] Herbicide treatments were 2,4-D (dimethylamine salt) at 1120, 2240 and 4480 g ae/ha, triclopyr at 840 g ae/ha, fluroxypyr at 280 g ae/ha and an untreated control. The AAD-12 (v1) events contained the AHAS gene as a selectable marker. The F2 corn events were segregating so the AAD-12 (v1) plants were treated with imazethapyr at 70 g ae/ha to remove the null plants. Herbicide treatments were applied when corn reached the V6 stage using compressed air backpack sprayer delivering 187 L/ha carrier volume at 130-200 kpa pressure. Visual injury ratings were taken at 7, 14 and 21 days after treatment.

[3] = tested on: AAD-12 (v1) tobacco lines (pDAS1580-[1]-018.001, pDAS1580-[1]-004.001, pDAS1580-[1]-020.016); assay: Field tolerance of tobacco, AAD-12 lines; type: in vivo, Nicotiana tabacum
Description: Field level tolerance trials were conducted on three AAD-12 (v1) lines (events pDAS1580-[1]-018.001, pDAS1580-[1]-004.001 and pDAS1580-[1]-020.016) and one wild-type line (KY160) at field stations in Indiana and Mississippi. Tobacco transplants were grown in the greenhouse by planting T1 seed in 72 well transplant flats (Hummert International) containing Metro 360 media according to growing conditions indicated above. The null plants were selectively removed by Liberty selection as previously described. The transplant plants were transported to the field stations and planted at either 14 or 24 inches apart using industrial vegetable planters. Drip irrigation at the Mississippi site and overhead irrigation at the Indiana site were used to keep plants growing vigorously.
The experimental design was a split plot design with 4 replications. The main plot was herbicide treatment and the sub-plot was tobacco line. The herbicide treatments were 2,4-D (dimethylamine salt) at 280, 560, 1120, 2240 and 4480 g ac/ha, triclopyr at 840 g ae/ha, fluroxypyr at 280 g ac/ha and an untreated control. Plots were one row by 25-30 ft. Herbicide treatments were applied 3-4 weeks after transplanting using compressed air backpack sprayer delivering 187 L/ha carrier volume at 130-200 kpa pressure. Visual rating of injury, growth inhibition, and epinasty were taken at 7, 14 and 21 days after treatment.

[4] = tested on: AAD-1 (v3) (pDAB721) T2 tobacco plants; assay: Auxinic herbicide cross tolerance of stacked tobacco, AAD-1 T2; type: in vivo, Nicotiana tabacum
Description: (§1) Homozygous AAD-12 (v1) (pDAS1580) and AAD-1 (v3) (pDAB721) plants (see PCT/US2005/014737 for the latter) were both reciprocally crossed and F1 seed was collected. The F1 seed from two reciprocal crosses of each gene were stratified and treated 4 reps of each cross were treated under the same spray regimen as used for the other testing with one of the following treatments: 70, 140, 280 g ac/ha fluroxypyr (selective for the AAD-12 (v1) gene); 280, 560, 1120 g ae/ha R-dichloroprop (selective for the AAD-1 (v3) gene); or 560, 1120, 2240 g ae/ha 2,4-D DMA (to confirm 2,4-D tolerance). Homozygous T2 plants of each gene were also planted for use as controls. Plants were graded at 3 and 14 DAT.

[5] = tested on: wildtype tobacco; assay: Auxinic herbicide cross tolerance of stacked tobacco, wildtype; type: in vivo, Nicotiana tabacum; conditions: KY160 wildtype control
Description: as §1

[6] = tested on: AAD-12 (v1) canola events 3759(20)018.001 and 3759(18)030.001; assay: Field tolerance of canola, AAD-12 events; type: in vivo, Brassica napus; conditions: for average injury: 14DAT
Description: Field level tolerance trial was conducted on two AAD-12 (v1) events 3759(20)018.001 and 3759(18)030.001 and a wild-type canola (Nex710) in Fowler, Ind. The experimental design was a randomized complete block design with 3 replications. Herbicide treatments were 2,4-D (dimethylamine salt) at 280, 560, 1120, 2240 and 4480 g ac/ha, triclopyr at 840 g ae/ha, fluroxypyr at 280 g ae/ha and an untreated control. Within each herbicide treatment, single 20 ft row/event for event 3759(18)030.0011, 3759(18)018.001 and wild-type line (Nex710) were planted with a 4 row drill on 8 inch row spacing. Herbicide treatments were applied when canola reached the 4-6 leaf stage using compressed air backpack sprayer delivering 187 L/ha carrier volume at 130-200 kpa pressure. […]

[7] = 2× rate of triclopyr (840 g ae/ha), 14 DAT

CNC.O=C(O)COc1ccc(Cl)cc1Cl [2,4-D DMA]
Average % Injury of Replicates 14 DAT ([1]; T1 1580(1)-004, 140 g ae/ha): 0% | Average % Injury of Replicates 14 DAT ([1]; T1 1580(1)-004, 560 g ae/ha): 0% | Average % Injury of Replicates 14 DAT ([1]; T1 1580(1)-004, 2240 g ae/ha): 0% | Average % Injury of Replicates 14 DAT ([1]; T1 1580(1)-018, 140 g ae/ha): 0% | Average % Injury of Replicates 14 DAT ([1]; T1 1580(1)-018, 560 g ae/ha): 0% | Average % Injury of Replicates 14 DAT ([1]; T1 1580(1)-018, 2240 g ae/ha): 0%

O=C(O)COc1ccc(Cl)cc1Cl [2,4-D, 2,4-dichlorophenoxyacetic acid]
visual injury ([2]; 2,4-D at 4480 g ae/ha, V6 stage): 44% | % Visual Injury 14DAT ([2]; 1120 g ae/ha): 9% | % Visual Injury 14DAT ([2]; 2240 g ae/ha): 20% | % Visual Injury 14DAT ([2]; 4480 g ae/ha): 34% | brace root injury ([2]; 4480 g ae/ha of 2,4-D): severe brace root fusing and malformation | Brace Root Injury Rating (0-10 scale) 28DAT ([2]; Wild-type NK603, 1120 g ae/ha): 3 | Brace Root Injury Rating (0-10 scale) 28DAT ([2]; Wild-type NK603, 2240 g ae/ha): 5 | Brace Root Injury Rating (0-10 scale) 28DAT ([2]; Wild-type NK603, 4480 g ae/ha): 6 | injury ([1]; 4× field rate (2240 g ae/ha) for 2,4-D or below): No injury | average injury ([3]; 2,4-D at the 2× rate, 14DAT): 1% | average injury ([3]; 2,4-D at the 4× rate, 14DAT): 4% | average injury ([3]; 2,4-D at the 8× rate, 14 DAT): 4% | Average % Injury across locations at 14 DAT ([3]; pDAS1580-[1]-004.001, 280 GM AE/HA): 0% | Average % Injury across locations at 14 DAT ([3]; pDAS1580-[1]-004.001, 560 GM AE/HA): 0% | Average % Injury across locations at 14 DAT ([3]; pDAS1580-[1]-004.001, 1120 GM AE/HA): 1% | Average % Injury across locations at 14 DAT ([3]; pDAS1580-[1]-004.001, 2240 GM AE/HA): 4% | Average % Injury across locations at 14 DAT ([3]; pDAS1580-[1]-004.001, 4480 GM AE/HA): 4% | Average % Injury across locations at 14 DAT ([3]; pDAS1580-[1]-018.001, 280 GM AE/HA): 0% | Average % Injury across locations at 14 DAT ([3]; pDAS1580-[1]-018.001, 560 GM AE/HA): 2% | Average % Injury across locations at 14 DAT ([3]; pDAS1580-[1]-018.001, 1120 GM AE/HA): 2% | Average % Injury across locations at 14 DAT ([3]; pDAS1580-[1]-018.001, 2240 GM AE/HA): 4% | Average % Injury across locations at 14 DAT ([3]; pDAS1580-[1]-018.001, 4480 GM AE/HA): 4% | Average % Injury across locations at 14 DAT ([3]; pDAS1580-[1]-020.016, 280 GM AE/HA): 0% | Average % Injury across locations at 14 DAT ([3]; pDAS1580-[1]-020.016, 560 GM AE/HA): 0% | Average % Injury across locations at 14 DAT ([3]; pDAS1580-[1]-020.016, 1120 GM AE/HA): 1% | Average % Injury across locations at 14 DAT ([3]; pDAS1580-[1]-020.016, 2240 GM AE/HA): 4% | Average % Injury across locations at 14 DAT ([3]; pDAS1580-[1]-020.016, 4480 GM AE/HA): 4% | Average % injury 14 DAT ([4]; 560 g ae/ha): 0% | Average % injury 14 DAT ([4]; 1120 g ae/ha): 4% | Average % injury 14 DAT ([4]; 2240 g ae/ha): 9% | Average % injury 14 DAT ([5]; 560 g ae/ha): 63% | Average % injury 14 DAT ([5]; 1120 g ae/ha): 80% | Average % injury 14 DAT ([5]; 2240 g ae/ha): 90% | average injury ([6]; 2,4-D at the 1× rate): 2% | average injury ([6]; 2,4-D at the 2× rate): 3% | average injury ([6]; 2,4-D at the 4× rate): 2% | % Visual Injury at 14 DAT ([6]; AAD-12 event 3759(18)030.001, 280 GM AE/HA): 0 b % | % Visual Injury at 14 DAT ([6]; AAD-12 event 3759(18)030.001, 560 GM AE/HA): 0 b % | % Visual Injury at 14 DAT ([6]; AAD-12 event 3759(18)030.001, 1120 GM AE/HA): 2 ab % | % Visual Injury at 14 DAT ([6]; AAD-12 event 3759(18)030.001, 2240 GM AE/HA): 3 ab % | % Visual Injury at 14 DAT ([6]; AAD-12 event 3759(20)018.001, 280 GM AE/HA): 0 a % | % Visual Injury at 14 DAT ([6]; AAD-12 event 3759(20)018.001, 560 GM AE/HA): 0 a % | % Visual Injury at 14 DAT ([6]; AAD-12 event 3759(20)018.001, 1120 GM AE/HA): 2 a % | % Visual Injury at 14 DAT ([6]; AAD-12 event 3759(20)018.001, 2240 GM AE/HA): 3 a %

C[C@@H](Oc1ccc(Cl)cc1Cl)C(=O)O [(R)-dichlorprop, R-2,4-dichlorophenoxypropionic acid]
Average % injury 14 DAT ([4]; 280 g ae/ha): 0% | Average % injury 14 DAT ([4]; 560 g ae/ha): 0% | Average % injury 14 DAT ([4]; 1120 g ae/ha): 3% | Average % injury 14 DAT ([5]; 280 g ae/ha): 25% | Average % injury 14 DAT ([5]; 560 g ae/ha): 60% | Average % injury 14 DAT ([5]; 1120 g ae/ha): 80%

O=C(O)COc1nc(Cl)c(Cl)cc1Cl [triclopyr]
% Visual Injury 14DAT ([2]; 840 g ae/ha): 31% | visual injury ([2]; 2× rate of triclopyr (840 g ae/ha)): 31% | average brace root injury score (0-10 scale) ([2]; Triclopyr at 840 g ae/ha, 28DAT): 7 | Brace Root Injury Rating (0-10 scale) 28DAT ([2]; Wild-type NK603, 840 g ae/ha): 7 | injury ([1]; 70-1120 g ae/ha triclopyr, in one event line): Some injury | Average % Injury of Replicates 14 DAT ([1]; T1 1580(1)-004, 70 g ae/ha): 0% | Average % Injury of Replicates 14 DAT ([1]; T1 1580(1)-004, 280 g ae/ha): 0% | Average % Injury of Replicates 14 DAT ([1]; T1 1580(1)-004, 1120 g ae/ha): 0% | Average % Injury of Replicates 14 DAT ([1]; T1 1580(1)-018, 70 g ae/ha): 5% | Average % Injury of Replicates 14 DAT ([1]; T1 1580(1)-018, 280 g ae/ha): 5% | Average % Injury of Replicates 14 DAT ([1]; T1 1580(1)-018, 1120 g ae/ha): 8% | average injury across the three lines [3, 7]: 5% | Average % Injury across locations at 14 DAT ([3]; pDAS1580-[1]-004.001, 840 GM AE/HA): 5% | Average % Injury across locations at 14 DAT ([3]; pDAS1580-[1]-018.001, 840 GM AE/HA): 4% | Average % Injury across locations at 14 DAT ([3]; pDAS1580-[1]-020.016, 840 GM AE/HA): 5% | average injury across the two events [6, 7]: 6% | % Visual Injury at 14 DAT ([6]; AAD-12 event 3759(18)030.001, 840 GM AE/HA): 6 ab % | % Visual Injury at 14 DAT ([6]; AAD-12 event 3759(20)018.001, 840 GM AE/HA): 6 a %
